# Experimental data as given in PubChem BioAssay (NCI).
# “And” between values parts separate entries of the source, which are not always exact repeats. Equal values may be shown once.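 Protocol summary: plate cells (96-well), add compound at 5 concentrations, incubate 48 h, interpolate endpoints linearly. TGI denotes the concentration required for complete inhibition of growth.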
# Experiments:
# Assay in all cases: DTP human tumour cell line panel, 48 h
# UACC-62 melanoma = tested on: UACC-62 melanoma
# SR leukemia = tested on: SR leukemia
# CCRF-CEM leukemia = tested on: CCRF-CEM leukemia
# NCI-H522 lung = tested on: NCI-H522 lung
# OVCAR-8 ovarian = tested on: OVCAR-8 ovarian
# HOP-62 NSCLC = tested on: HOP-62 NSCLC
# MCF7 breast = tested on: MCF7 breast
# KM12 colon = tested on: KM12 colon
# MOLT-4 leukemia = tested on: MOLT-4 leukemia
# SK-OV-3 ovarian = tested on: SK-OV-3 ovarian
# OVCAR-5 ovarian = tested on: OVCAR-5 ovarian
# HOP-92 NSCLC = tested on: HOP-92 NSCLC
# HCC-2998 colon = tested on: HCC-2998 colon
# T-47D breast = tested on: T-47D breast
# IGROV1 ovarian = tested on: IGROV1 ovarian
# OVCAR-3 ovarian = tested on: OVCAR-3 ovarian
# ACHN renal = tested on: ACHN renal
# NCI-H226 lung = tested on: NCI-H226 lung
# HCT-15 colon = tested on: HCT-15 colon
# SNB-19 CNS = tested on: SNB-19 CNS
# SNB-75 CNS = tested on: SNB-75 CNS
# SK-MEL-28 melanoma = tested on: SK-MEL-28 melanoma
# M14 melanoma = tested on: M14 melanoma
# EKVX NSCLC = tested on: EKVX NSCLC
# A549 NSCLC = tested on: A549 NSCLC
# A498 renal = tested on: A498 renal
# SW-620 colon = tested on: SW-620 colon
# SF-539 CNS = tested on: SF-539 CNS
# MDA-N = tested on: MDA-N
# MDA-MB-435 = tested on: MDA-MB-435
# MALME-3M melanoma = tested on: MALME-3M melanoma
# PC-3 prostate = tested on: PC-3 prostate
# RXF 393 renal = tested on: RXF 393 renal
# 786-0 renal = tested on: 786-0 renal
# SN12C renal = tested on: SN12C renal
# UO-31 renal = tested on: UO-31 renal
# CAKI-1 renal = tested on: CAKI-1 renal
# OVCAR-4 ovarian = tested on: OVCAR-4 ovarian
# COLO 205 colon = tested on: COLO 205 colon
# NCI/ADR-RES ovarian = tested on: NCI/ADR-RES ovarian
# SK-MEL-2 melanoma = tested on: SK-MEL-2 melanoma
# HT29 colon = tested on: HT29 colon
# LOX IMVI melanoma = tested on: LOX IMVI melanoma
# NCI-H460 lung = tested on: NCI-H460 lung
# SF-268 CNS = tested on: SF-268 CNS
# TK-10 renal = tested on: TK-10 renal
# U251 CNS = tested on: U251 CNS
# MDA-MB-231 breast = tested on: MDA-MB-231 breast
# K-562 leukemia = tested on: K-562 leukemia
# BT-549 breast = tested on: BT-549 breast
# HL-60(TB) leukemia = tested on: HL-60(TB) leukemia
# SF-295 CNS = tested on: SF-295 CNS
# DU-145 prostate = tested on: DU-145 prostate
# HCT-116 colon = tested on: HCT-116 colon
# UACC-257 melanoma = tested on: UACC-257 melanoma
# RPMI-8226 leukemia = tested on: RPMI-8226 leukemia
# SK-MEL-5 melanoma = tested on: SK-MEL-5 melanoma
# NCI-H23 lung = tested on: NCI-H23 lung
# HS 578T breast = tested on: HS 578T breast
smiles,measurement,setting,value
C=CCOc1ccccc1N=N/C(C#N)=N\Nc1ccccc1OCC=C,TGI,UACC-62 melanoma,> 100 µM
same,TGI,SR leukemia,> 100 µM
same,TGI,CCRF-CEM leukemia,> 100 µM
same,TGI,NCI-H522 lung,> 100 µM
same,TGI,OVCAR-8 ovarian,> 100 µM
same,TGI,HOP-62 NSCLC,> 100 µM
same,TGI,MCF7 breast,> 100 µM
same,TGI,KM12 colon,> 100 µM
same,TGI,MOLT-4 leukemia,> 100 µM
same,TGI,SK-OV-3 ovarian,> 100 µM
same,TGI,OVCAR-5 ovarian,> 100 µM
same,TGI,HOP-92 NSCLC,> 100 µM
same,TGI,HCC-2998 colon,> 100 µM
same,TGI,T-47D breast,> 100 µM
same,TGI,IGROV1 ovarian,> 100 µM
same,TGI,OVCAR-3 ovarian,> 100 µM
same,TGI,ACHN renal,> 100 µM
same,TGI,NCI-H226 lung,> 100 µM
same,TGI,HCT-15 colon,> 100 µM
same,TGI,SNB-19 CNS,> 100 µM
same,TGI,SNB-75 CNS,> 100 µM
same,TGI,SK-MEL-28 melanoma,> 100 µM
same,TGI,M14 melanoma,> 100 µM
same,TGI,EKVX NSCLC,> 100 µM
same,TGI,A549 NSCLC,> 100 µM
same,TGI,A498 renal,> 100 µM
same,TGI,SW-620 colon,> 100 µM
same,TGI,SF-539 CNS,> 100 µM
same,TGI,MDA-N,94.7 µM
same,TGI,MDA-MB-435,> 100 µM
same,TGI,MALME-3M melanoma,> 100 µM
same,TGI,PC-3 prostate,> 100 µM
same,TGI,RXF 393 renal,> 100 µM
same,TGI,786-0 renal,> 100 µM
same,TGI,SN12C renal,> 100 µM
same,TGI,UO-31 renal,> 100 µM
same,TGI,CAKI-1 renal,> 100 µM
same,TGI,OVCAR-4 ovarian,> 100 µM
same,TGI,COLO 205 colon,> 100 µM
same,TGI,NCI/ADR-RES ovarian,> 100 µM
same,TGI,SK-MEL-2 melanoma,> 100 µM
same,TGI,HT29 colon,> 100 µM
same,TGI,LOX IMVI melanoma,> 100 µM
same,TGI,NCI-H460 lung,> 100 µM
same,TGI,SF-268 CNS,> 100 µM
same,TGI,TK-10 renal,> 100 µM
same,TGI,U251 CNS,> 100 µM
same,TGI,MDA-MB-231 breast,> 100 µM
same,TGI,K-562 leukemia,> 100 µM
same,TGI,BT-549 breast,> 100 µM
same,TGI,HL-60(TB) leukemia,> 100 µM
same,TGI,SF-295 CNS,> 100 µM
same,TGI,DU-145 prostate,> 100 µM
same,TGI,HCT-116 colon,> 100 µM
same,TGI,UACC-257 melanoma,> 100 µM
same,TGI,RPMI-8226 leukemia,> 100 µM
same,TGI,SK-MEL-5 melanoma,> 100 µM
same,TGI,NCI-H23 lung,> 100 µM
same,TGI,HS 578T breast,> 100 µM
Cc1ccc(N=Nc2c(O)ccc3cc(S(=O)(=O)O)ccc23)c(C)c1,TGI,UACC-62 melanoma,> 100 µM
same,TGI,SR leukemia,> 100 µM
same,TGI,CCRF-CEM leukemia,> 100 µM
same,TGI,NCI-H522 lung,> 100 µM
same,TGI,OVCAR-8 ovarian,> 100 µM
same,TGI,HOP-62 NSCLC,> 100 µM
same,TGI,MCF7 breast,> 100 µM
same,TGI,KM12 colon,> 100 µM
same,TGI,MOLT-4 leukemia,> 100 µM
same,TGI,SK-OV-3 ovarian,> 100 µM
same,TGI,OVCAR-5 ovarian,> 100 µM
same,TGI,HOP-92 NSCLC,> 100 µM
same,TGI,HCC-2998 colon,> 100 µM
same,TGI,T-47D breast,> 100 µM
same,TGI,IGROV1 ovarian,> 100 µM
same,TGI,OVCAR-3 ovarian,> 100 µM
same,TGI,ACHN renal,> 100 µM
same,TGI,NCI-H226 lung,> 100 µM
same,TGI,HCT-15 colon,> 100 µM
same,TGI,SNB-19 CNS,> 100 µM
same,TGI,SNB-75 CNS,> 100 µM
same,TGI,SK-MEL-28 melanoma,> 100 µM
same,TGI,M14 melanoma,> 100 µM
same,TGI,EKVX NSCLC,> 100 µM
same,TGI,A549 NSCLC,> 100 µM
same,TGI,A498 renal,> 100 µM
same,TGI,SW-620 colon,> 100 µM
same,TGI,SF-539 CNS,> 100 µM
same,TGI,MDA-N,> 100 µM
same,TGI,MDA-MB-435,> 100 µM
same,TGI,MALME-3M melanoma,> 100 µM
same,TGI,PC-3 prostate,> 100 µM
same,TGI,RXF 393 renal,> 100 µM
same,TGI,786-0 renal,> 100 µM
same,TGI,SN12C renal,> 100 µM
same,TGI,UO-31 renal,> 100 µM
same,TGI,CAKI-1 renal,> 100 µM
same,TGI,OVCAR-4 ovarian,> 100 µM
same,TGI,COLO 205 colon,> 100 µM
same,TGI,NCI/ADR-RES ovarian,> 100 µM
same,TGI,SK-MEL-2 melanoma,> 100 µM
same,TGI,HT29 colon,> 100 µM
same,TGI,NCI-H460 lung,> 100 µM
same,TGI,SF-268 CNS,> 100 µM
same,TGI,TK-10 renal,> 100 µM
same,TGI,U251 CNS,> 100 µM
same,TGI,MDA-MB-231 breast,> 100 µM
same,TGI,K-562 leukemia,> 100 µM
same,TGI,BT-549 breast,> 100 µM
same,TGI,HL-60(TB) leukemia,> 100 µM
same,TGI,SF-295 CNS,> 100 µM
same,TGI,DU-145 prostate,> 100 µM
same,TGI,HCT-116 colon,> 100 µM
same,TGI,UACC-257 melanoma,> 100 µM
same,TGI,SK-MEL-5 melanoma,> 100 µM
same,TGI,NCI-H23 lung,> 100 µM
same,TGI,HS 578T breast,> 100 µM
O=C1NC(N/N=C\C(O)C(O)C(O)CO)=N/C1=C/c1ccc(Cl)cc1 (configuration not stated),TGI,CCRF-CEM leukemia,> 100 µM
same,TGI,NCI-H522 lung,> 100 µM
same,TGI,OVCAR-8 ovarian,> 100 µM
same,TGI,HOP-62 NSCLC,> 100 µM
same,TGI,MCF7 breast,> 100 µM
same,TGI,KM12 colon,> 100 µM
same,TGI,MOLT-4 leukemia,55.6 µM and 61.4 µM
same,TGI,SK-OV-3 ovarian,> 100 µM
same,TGI,OVCAR-5 ovarian,> 100 µM
same,TGI,HOP-92 NSCLC,> 100 µM
same,TGI,T-47D breast,> 100 µM
same,TGI,IGROV1 ovarian,> 100 µM
same,TGI,OVCAR-3 ovarian,58.3 µM and 91.9 µM
same,TGI,ACHN renal,52.7 µM and 48.1 µM
same,TGI,NCI-H226 lung,> 100 µM
same,TGI,HCT-15 colon,52.8 µM
same,TGI,SNB-19 CNS,> 100 µM
same,TGI,SNB-75 CNS,> 100 µM
same,TGI,SK-MEL-28 melanoma,> 100 µM
same,TGI,M14 melanoma,77.8 µM
same,TGI,EKVX NSCLC,> 100 µM
same,TGI,A549 NSCLC,> 100 µM
same,TGI,A498 renal,> 100 µM
same,TGI,SW-620 colon,> 100 µM
same,TGI,SF-539 CNS,> 100 µM
same,TGI,MDA-N,> 100 µM
same,TGI,MDA-MB-435,> 100 µM
same,TGI,MALME-3M melanoma,80.2 µM and > 100 µM
same,TGI,PC-3 prostate,> 100 µM
same,TGI,RXF 393 renal,> 100 µM
same,TGI,786-0 renal,> 100 µM
same,TGI,SN12C renal,> 100 µM
same,TGI,UO-31 renal,> 100 µM
same,TGI,CAKI-1 renal,> 100 µM
same,TGI,OVCAR-4 ovarian,57 µM
same,TGI,COLO 205 colon,> 100 µM
same,TGI,NCI/ADR-RES ovarian,> 100 µM
same,TGI,SK-MEL-2 melanoma,> 100 µM
same,TGI,HT29 colon,> 100 µM
same,TGI,LOX IMVI melanoma,> 100 µM
same,TGI,NCI-H460 lung,> 100 µM
same,TGI,SF-268 CNS,> 100 µM
same,TGI,TK-10 renal,> 100 µM
same,TGI,U251 CNS,> 100 µM
same,TGI,MDA-MB-231 breast,> 100 µM
same,TGI,K-562 leukemia,> 100 µM
same,TGI,BT-549 breast,> 100 µM
same,TGI,HL-60(TB) leukemia,> 100 µM
same,TGI,SF-295 CNS,> 100 µM
same,TGI,DU-145 prostate,> 100 µM
same,TGI,HCT-116 colon,> 100 µM
same,TGI,UACC-257 melanoma,> 100 µM
same,TGI,RPMI-8226 leukemia,> 100 µM and 94.3 µM
same,TGI,SK-MEL-5 melanoma,> 100 µM
same,TGI,NCI-H23 lung,> 100 µM
same,TGI,HS 578T breast,> 100 µM
